Measurements: patent US8975276B2, “Inhibitors of PDE10” (Bristol-Myers Squibb Company, priority 2011, dated 2015)
Structures can show the parent of a compound that is named as a salt. Where two headings read alike, the source gives them in different places.

Molecular target: PDE10 (Homo sapiens (Human), UniProt Q9Y233)
Test: LE_PDE10A inhibition assay (scintillation proximity assay, cAMP hydrolysis)
Type: biochemical
Conditions: SPA, 3H-cAMP substrate at Km 25 nM
Method: LE_PDE10A Inhibition Assay:
The PDE10 inhibition assay in 384-well plates was conducted to identify substances for the inhibition of cyclic nucleotide hydrolysis by the PDE10 enzyme. […] PDE10 activity was measured using Scintillation Proximity Assay (SPA)-based methods. PDE10 catalyses the hydrolysis of the intracellular messenger adenosine […] (cAMP) to the non-cyclic adenosine 5′-monophosphate (AMP). The SPA assay was based upon the selective interaction of the tritiated product with yttrium oxide LEADseeker beads.
The assay buffer contained 25 mM HEPES pH 7.4, 2.5 mM Magnesium Chloride and 0.1% BSA. […] The reaction was terminated by adding 6 μL of 5 mg/mL of yttrium oxide LEADseeker beads. The beads were allowed to settle for 3 hours before plates were read in the LEEDSeaker for 6 minutes. The measured signal could be converted to activity relative to an […] control (100%). IC50 values were calculated by using in-house data software and IC50 values were generated by nonlinear regression analysis. (Bristol-Myers Squibb Company, Wallingford, Conn.).

PDE10, sequence (Q9Y233 whole entry): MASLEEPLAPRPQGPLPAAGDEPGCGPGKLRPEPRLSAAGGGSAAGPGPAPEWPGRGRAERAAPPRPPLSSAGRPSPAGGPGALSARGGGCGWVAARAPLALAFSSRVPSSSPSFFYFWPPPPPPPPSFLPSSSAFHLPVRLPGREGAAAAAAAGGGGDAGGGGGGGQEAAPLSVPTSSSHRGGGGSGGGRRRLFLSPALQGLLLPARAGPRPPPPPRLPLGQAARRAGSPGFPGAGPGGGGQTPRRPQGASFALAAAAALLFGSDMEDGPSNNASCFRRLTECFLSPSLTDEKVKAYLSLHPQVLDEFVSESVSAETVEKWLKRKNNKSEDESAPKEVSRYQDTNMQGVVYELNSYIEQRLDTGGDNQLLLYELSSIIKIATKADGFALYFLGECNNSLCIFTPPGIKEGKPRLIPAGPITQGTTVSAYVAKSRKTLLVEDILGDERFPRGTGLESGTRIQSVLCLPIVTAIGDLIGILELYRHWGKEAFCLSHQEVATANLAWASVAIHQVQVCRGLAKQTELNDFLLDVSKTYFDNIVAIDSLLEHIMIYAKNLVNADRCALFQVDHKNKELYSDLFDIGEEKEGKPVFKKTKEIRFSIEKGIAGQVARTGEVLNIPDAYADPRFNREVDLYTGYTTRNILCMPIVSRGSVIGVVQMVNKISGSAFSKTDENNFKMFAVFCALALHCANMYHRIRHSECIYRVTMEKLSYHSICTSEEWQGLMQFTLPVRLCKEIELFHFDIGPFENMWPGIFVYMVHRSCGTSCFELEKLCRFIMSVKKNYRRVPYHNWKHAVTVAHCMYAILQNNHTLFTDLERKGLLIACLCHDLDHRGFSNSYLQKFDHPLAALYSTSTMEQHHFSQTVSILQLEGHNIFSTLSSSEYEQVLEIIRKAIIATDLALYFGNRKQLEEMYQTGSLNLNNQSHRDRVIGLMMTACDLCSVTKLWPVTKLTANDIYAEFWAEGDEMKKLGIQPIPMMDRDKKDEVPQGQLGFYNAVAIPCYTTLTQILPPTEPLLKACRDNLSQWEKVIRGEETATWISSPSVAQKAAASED

Compound	IC50 (read-out: PDE10 IC50)	IC50 (read-out: PDE10 IC50 (Range))
Cc1ncc(C)n2nc(-c3ccn4cc(-c5ccccc5)nc4c3)nc12 [Example 1, 5,8-dimethyl-2-(2-phenylimidazo[1,2-a]pyridin-7-yl)-[1,2,4]triazolo[1,5-a]pyrazine]	0.1 nM	–
Cc1ncc(C)n2nc(-c3ccn4cc(-c5ccccn5)nc4c3)nc12 [Example 14, 5,8-dimethyl-2-(2-(pyridin-2-yl)imidazo[1,2-a]pyridin-7-yl)-[1,2,4]triazolo[1,5-a]pyrazine]	0.16 nM	–
Cc1nccn2nc(-c3ccn4cc(-c5cccc(Br)c5)nc4c3)nc12 [Example 23, 2-(2-(3-bromophenyl)imidazo[1,2-a]pyridin-7-yl)-8-methyl-[1,2,4]triazolo[1,5-a]pyrazine]	–	1 to 100 nM
Cc1nccn2nc(-c3ccn4cc(-c5cccc(C6CC6)c5)nc4c3)nc12 [Example 24, 2-(2-(3-cyclopropylphenyl)imidazo[1,2-a]pyridin-7-yl)-8-methyl-[1,2,4]triazolo[1,5-a]pyrazine]	–	1 to 100 nM
Cc1ncc(C)n2nc(-c3ccn4cc(-c5cccc(C6CC6)c5)nc4c3)nc12 [Example 26, 2-(2-(3-cyclopropylphenyl)imidazo[1,2-a]pyridin-7-yl)-5,8-dimethyl-1,2,41-triazolo[1,5-a]pyrazine]	0.33 nM	–
Cc1ncc(C)n2nc(-c3ccn4cc(-c5cccc(N6CC[C@H](F)C6)c5)nc4c3)nc12 [Example 28, (S)-2-(2-(3-(3-fluoropyrrolidin-1-yl)phenyl)imidazo[1,2-a]pyridin-7-yl)-5,8-dimethyl-[1,2,4]triazolo[1,5-a]pyrazine]	0.16 nM	–
Cc1nccn2nc(-c3ccn4c(C)c(-c5ccccc5)nc4c3)nc12 [Example 29, 8-methyl-2-(3-methyl-2-phenylimidazo[1,2-a]pyridin-7-yl)-[1,2,4]triazolo[1,5-a]pyrazine]	2.4 nM	1 to 100 nM

Continued, values first:

IC50 (read-out: PDE10 IC50)	IC50 (read-out: PDE10 IC50 (Range))	Compound
–	1 to 100 nM	Cc1ncc(C)n2nc(-c3ccn4cc(-c5ccc(Cl)cc5)nc4c3)nc12 [Example 6, 2-(2-(4-chlorophenyl)imidazo[1,2-a]pyridin-7-yl)-5,8-dimethyl-[1,2,4]triazolo[1,5-a]pyrazine]
11 nM	1 to 100 nM	Cc1ccc(-c2cn3ccc(-c4nc5c(C)ncc(C)n5n4)cc3n2)c(C)c1 [Example 7, 2-(2-(2,4-dimethylphenyl)imidazo[1,2-a]pyridin-7-yl)-5,8-dimethyl-[1,2,4]triazolo[1,5-a]pyrazine]
–	1 to 100 nM	Cc1ncc(C)n2nc(-c3ccn4cc(-c5ccc(C#N)cc5)nc4c3)nc12 [Example 16, 4-(7-(5,8-dimethyl-[1,2,4]triazolo[1,5-a]pyrazin-2-yl)-imidazo[1,2-a]pyridin-2-yl)benzonitrile]
3.5 nM	1 to 100 nM	Cc1ncc(C)n2nc(-c3cc4nc(-c5ccccc5)cn4cc3N3CCCC3)nc12 [Example 17, 5,8-dimethyl-2-(2-phenyl-6-(pyrrolidin-1-yl)imidazo[1,2-a]pyridin-7-yl)-[1,2,4]triazolo[1,5-a]pyrazine]
–	1 to 100 nM	Cc1nccn2nc(-c3ccn4cc(-c5ccccc5)nc4c3)nc12 [Example 19, 8-methyl-2-(2-phenylimidazo[1,2-a]pyridin-7-yl)-1,2,41-triazolo[1,5-a]pyrazine, 2 HCl]
–	1 to 100 nM	Cc1nccn2nc(-c3ccn4cc(-c5ccccn5)nc4c3)nc12 [Example 20, 8-methyl-2-(2-(pyridin-2-yl)imidazo[1,2-a]pyridin-7-yl)-[1,2,4]triazolo[1,5-a]pyrazine, 2 HCl]
26 nM	1 to 100 nM	Cc1ncc(C)n2nc(-c3ccn4cc(C5CC5)nc4c3)nc12 [Example 21, 2-(2-cyclopropylimidazo[1,2-a]pyridin-7-yl)-5,8-dimethyl-[1,2,4]triazolo[1,5-a]pyrazine]
–	1 to 100 nM	Cc1ncc(C)n2nc(-c3ccn4cc(-c5cnccn5)nc4c3)nc12 [Example 22, 5,8-dimethyl-2-(2-(pyrazin-2-yl)imidazo[1,2-a]pyridin-7-yl)-[1,2,4]triazolo[1,5-a]pyrazine]
